Measurements reported in patent publication US20160272617A1, “SUBSTITUTED PHENYLALANINE DERIVATIVES” (BAYER PHARMA AKTIENGESELLSCHAFT, priority 2013, published 2016).
Counter-ions that a name gives are not always drawn.

Tests used:
[1] = test system: human and animal plasma; experiment: Determination of anticoagulatory activity: activated partial thromboplastin time (aPTT) in plasma; details: concentration of test substance which brings about a 1.5-fold extension of the aPTT; plasma species not given
Method: The anticoagulatory activity of the test substances is determined in vitro in human and animal plasma (for example mouse, rat, rabbit, pig and dog plasma). To this end, blood is drawn off in a mixing ratio of sodium citrate/blood of 1:9 using a 0.11 molar sodium citrate solution as receiver. Immediately after the blood has been drawn off, it is mixed thoroughly and centrifuged at about 4000 g for 15 minutes. The supernatant is pipetted off.
The activated partial thromboolastin time (aPTT) is determined in the presence of varying concentrations of test substance or the corresponding solvent using a commercial test kit (C. K. Prest from Diagnostica Stago). The test compounds are incubated with the plasma and the PTT reagent (cephalin, kaolin) at 37° C. for 3 minutes. Coagulation is then started by addition of a 25 mM aqueous calcium chloride solution, and the time when coagulation occurs is determined. The concentration of test substance which brings about a 1.5-fold extension of the aPTT is determined.

[2] = target: T1, human factor XIa (Homo sapiens, UniProt P03951); experiment: Measurement of FXIa inhibition (fluorogenic peptide substrate Boc-Glu(OBzl)-Ala-Arg-AMC); assay type: biochemical; details: factor XIa from Kordia, 15 min preincubation, 30 min at 22° C., fluorescence
T1 construct: purchased Kordia
Summary of the method: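 Released AMC fluorescence (360/460 nm) read after 30 min at 22 °C. The reaction was started with Boc-Glu(OBzl)-Ala-Arg-AMC (10 μM stock) after a 15 min preincubation of the enzyme (0.45 nM stock) with compound (final 50 μM to 0.00013 μM).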

T1 sequence (P03951 388-625 limits assumed): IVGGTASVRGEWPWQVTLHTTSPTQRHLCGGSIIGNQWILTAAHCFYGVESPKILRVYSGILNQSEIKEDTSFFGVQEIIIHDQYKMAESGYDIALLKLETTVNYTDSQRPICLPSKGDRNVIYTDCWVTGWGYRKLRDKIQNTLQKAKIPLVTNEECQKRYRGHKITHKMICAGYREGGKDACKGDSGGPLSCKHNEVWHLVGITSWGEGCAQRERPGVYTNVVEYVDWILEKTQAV
T1 sequence (P03951 19-387 partner limits assumed): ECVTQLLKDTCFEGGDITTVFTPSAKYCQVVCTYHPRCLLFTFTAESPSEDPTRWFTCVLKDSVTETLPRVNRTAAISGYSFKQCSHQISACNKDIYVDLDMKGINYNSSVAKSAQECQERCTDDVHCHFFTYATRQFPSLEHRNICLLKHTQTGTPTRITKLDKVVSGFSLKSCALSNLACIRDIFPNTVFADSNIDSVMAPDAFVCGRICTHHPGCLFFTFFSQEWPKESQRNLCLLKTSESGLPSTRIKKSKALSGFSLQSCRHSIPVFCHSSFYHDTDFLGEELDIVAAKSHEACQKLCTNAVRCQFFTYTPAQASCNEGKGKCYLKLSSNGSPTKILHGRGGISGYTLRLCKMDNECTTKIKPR

| Compound | aPTT [1] [µmol/L] | IC50 [2] [nM] |
| --- | --- | --- |
| Cc1cc(C(=O)N[C@@H]2C[C@@H](CO)NC2=O)ccc1-c1ccc(C[C@H](NC(=O)[C@H]2CC[C@H](CN)CC2)C(=O)Nc2ccc(-c3nc(C(F)(F)C(F)(F)C(=O)O)n[nH]3)cc2)cc1 [Example 106, 3-[5-(4-{[(2S)-2-({[trans-4-(Aminomethyl)cyclohexyl]carbonyl}amino)-3-(4′-{[(3R,5S)-5-(hydroxymethyl)-2-oxopyrrolidin-3-yl]carbamoyl}-2′-methylbiphenyl-4-yl)propanoyl]amino}-phenyl)-1H-1,2,4-triazol-3-yl]-2,2,3,3-tetrafluoropropanoic acid hydrochloride] | 0.11 | 1.1 |
| Cc1cc(C(=O)NC2CCNCC2)ccc1-c1ccc(C[C@H](NC(=O)[C@H]2CC[C@H](CN)CC2)C(=O)Nc2ccc3nc(C(F)F)[nH]c3c2)cc1 [Example 86, 4′-[(2S)-2-({[trans-4-(Aminomethyl)cyclohexyl]carbonyl}amino)-3-{[2-(difluoromethyl)-1H-benzimidazol-6-yl]amino}-3-oxopropyl]-2-methyl-N-(piperidin-4-yl)biphenyl-4-carboxamide hydrochloride] | 0.14 | 13 |
| Cc1cc(C(=O)N2CCNCC2)ccc1-c1ccc(C[C@H](NC(=O)[C@H]2CC[C@H](CN)CC2)C(=O)Nc2ccc3cn[nH]c3c2)cc1 [Example 5, trans-4-(Aminomethyl)-N-{(2S)-1-(1H-indazol-6-ylamino)-3-[2′-methyl-4′-(piperazin-1-ylcarbonyl)biphenyl-4-yl]-1-oxopropan-2-yl}cyclohexanecarboxamide hydrochloride] | 0.21 | 16 |
| NC[C@H]1CC[C@H](C(=O)N[C@@H](Cc2ccc(-c3ccc(C(=O)N[C@@H]4CCCNC4=O)c(F)c3)cc2)C(=O)Nc2ccc(-c3n[nH]c(C(F)(F)C(F)(F)C(=O)O)n3)cc2)CC1 [Example 111, 3-[3-(4-{[(2S)-2-({[trans-4-(Aminomethyl)cyclohexyl]carbonyl}amino)-3-(3′-fluoro-4′-{[(3R)-2-oxopiperidin-3-yl]carbamoyl}biphenyl-4-yl)propanoyl]amino}phenyl)-1H-1,2,4-triazol-5-yl]-2,2,3,3-tetrafluoropropanoic acid hydrochloride] | 0.13 | 1 |
| Cc1cc(C(=O)N[C@H]2CC[C@H](O)CC2)ccc1-c1ccc(C[C@H](NC(=O)[C@H]2CC[C@H](CN)CC2)C(=O)Nc2ccc(-c3nn[nH]n3)cc2)cc1 [Example 33, 4′-[(2S)-2-({[trans-4-(Aminomethyl)cyclohexyl]carbonyl}amino)-3-oxo-3-{[4-(2H-tetrazol-5-yl)phenyl]amino}propyl]-N-(trans-4-hydroxycyclohexyl)-2-methylbiphenyl-4-carboxamide hydrochloride] | 0.11 | 0.78 |
| Cc1cc(C(=O)N[C@@H]2CCNC2)ccc1-c1ccc(C[C@H](NC(=O)[C@H]2CC[C@H](CN)CC2)C(=O)Nc2ccc3[nH]c(C(F)(F)C(F)(F)F)nc3c2)cc1 [Example 80, 4′-[(2S)-2-({[trans-4-(Aminomethyl)cyclohexyl]carbonyl}amino)-3-oxo-3-{[2-(pentafluoroethyl)-1H-benzimidazol-5-yl]amino}propyl]-2-methyl-N-[(3R)-pyrrolidin-3-yl]biphenyl-4-carboxamide hydrochloride] | 0.41 | 17 |
| Cc1cc(C(=O)N[C@H]2CCCNC2=O)ccc1-c1ccc(C[C@H](NC(=O)[C@H]2CC[C@H](CN)CC2)C(=O)Nc2ccc3c(Cl)n[nH]c3c2)cc1 [Example 93, 4′-{(2S)-2-({[trans-4-(Aminomethyl)cyclohexyl]carbonyl}amino)-3-[(3-chloro-1H-indazol-6-yl)amino]-3-oxopropyl}-2-methyl-N-[(3S)-2-oxopiperidin-3-yl]biphenyl-4-carboxamide hydrochloride] | 0.21 | 2.4 |
| Cc1cc(C(=O)NC2CCC(N(C)C)CC2)ccc1-c1ccc(CC(NC(=O)[C@H]2CC[C@H](CN)CC2)C(=O)Nc2ccc(-c3nc(C(F)(F)C(F)(F)C(=O)O)n[nH]3)cc2)cc1 (stereo partly drawn) [Example 101, 3-[5-(4-{[(2S)-2-({[trans-4-(Aminomethyl)cyclohexyl]carbonyl}amino)-3-(4′-{[4-(dimethyl-amino)cyclohexyl]carbamoyl}-2′-methylbiphenyl-4-yl)propanoyl]amino}phenyl)-1H-1,2,4-triazol-3-yl]-2,2,3,3-tetrafluoropropanoic acid hydrochloride] | 0.07 | 1.1 |
| CN(C)C1CCC(NC(=O)c2ccc(-c3ccc(C[C@H](NC(=O)[C@H]4CC[C@H](CN)CC4)C(=O)Nc4ccc(-c5nc(C(F)(F)C(F)(F)C(=O)O)n[nH]5)cc4)cc3)c(C(F)(F)F)c2)CC1 (stereo partly drawn) [Example 132, 3-{5-[4-({(2S)-2-({[trans-4-(Aminomethyl)cyclohexyl]carbonyl}amino)-3-[4′-{[4-(dimethyl-amino)cyclohexyl]carbamoyl}-2′-(trifluoromethyl)biphenyl-4-yl]propanoyl}amino)phenyl]-1H-1,2,4-triazol-3-yl}-2,2,3,3-tetrafluoropropanoic acid hydrochloride] | 0.05 | 1.6 |
| Cc1cc(C(=O)NC2C3CNCC32)ccc1-c1ccc(C[C@H](NC(=O)C2CCC(CN)CC2)C(=O)Nc2ccc(-c3nn[nH]n3)cc2)cc1 (stereo partly drawn) [Example 43, 4′-[(2S)-2-({[trans-4-(Aminomethyl)cyclohexyl]carbonyl}amino)-3-oxo-3-{[4-(2H-tetrazol-5-yl)phenyl]amino}propyl]-N-(3-azabicyclo[3.1.0]hex-6-yl)-2-methylbiphenyl-4-carboxamide hydrochloride] | 0.06 | 3.3 |
| Cc1cc(C(=O)NC2CCNCC2)ccc1-c1ccc(C[C@H](NC(=O)[C@H]2CC[C@H](CN)CC2)C(=O)Nc2ccc3nc(-n4cccn4)[nH]c3c2)cc1 [Example 60, 4′-[(2S)-2-({[trans-4-(Aminomethyl)cyclohexyl]carbonyl}amino)-3-oxo-3-{[2-(1H-pyrazol-1-yl)-1H-benzimidazol-6-yl]amino}propyl]-2-methyl-N-(piperidin-4-yl)biphenyl-4-carboxamide hydrochloride] | 0.63 | 45 |
| Cc1cc(C(=O)NC2CCNCC2)ccc1-c1ccc(C[C@H](NC(=O)[C@H]2CC[C@H](CN)CC2)C(=O)Nc2ccc3c(=O)[nH][nH]c3c2)cc1 [Example 22, 4′-{(2S)-2-({[trans-4-(Aminomethyl)cyclohexyl]carbonyl}amino)-3-oxo-3-[(3-oxo-2,3-dihydro-1H-indazol-6-yl)amino]propyl}-2-methyl-N-(piperidin-4-yl)biphenyl-4-carboxamide hydrochloride] | 0.06 | 15 |
| NC[C@H]1CC[C@H](C(=O)N[C@@H](Cc2ccc(-c3ccc(C(=O)NC4CC4)cc3)cc2)C(=O)Nc2ccc(-c3nnn[nH]3)cc2)CC1 [Example 62, 4′-[(2S)-2-({[trans-4-(Aminomethyl)cyclohexyl]carbonyl}amino)-3-oxo-3-{[4-(1H-tetrazol-5-yl)phenyl]amino}propyl]-N-cyclopropylbiphenyl-4-carboxamide hydrochloride] | 0.53 | 2.9 |
| Cc1cc(C(=O)NCCN)ccc1-c1ccc(C[C@H](NC(=O)[C@H]2CC[C@H](CN)CC2)C(=O)Nc2ccc(-c3nn[nH]n3)cc2)cc1 [Example 15, N-(2-Aminoethyl)-4′-[(2S)-2-({[trans-4-(aminomethyl)cyclohexyl]carbonyl}amino)-3-oxo-3-{[4-(2H-tetrazol-5-yl)phenyl]amino}propyl]-2-methylbiphenyl-4-carboxamide hydrochloride] | 0.09 | 2.9 |
| Cc1c(C(=O)NC2CCN(C)CC2)ccc(-c2ccc(C[C@H](NC(=O)[C@H]3CC[C@H](CN)CC3)C(=O)Nc3ccc(-c4nn[nH]n4)cc3)cc2)c1Cl [Example 125, 4′-[(2S)-2-({[trans-4-(Aminomethyl)cyclohexyl]carbonyl}amino)-3-oxo-3-{[4-(2H-tetrazol-5-yl)phenyl]amino}propyl]-2-chloro-3-methyl-N-(1-methylpiperidin-4-yl)biphenyl-4-carboxamide hydrochloride] | 0.09 | 3 |
| Cc1cc(C(=O)NC2CCNCC2)ccc1-c1ccc(C[C@H](NC(=O)[C@H]2CC[C@H](CN)CC2)C(=O)Nc2ccc(-c3nn[nH]n3)cc2)cc1F [Example 61, 4′-[(2S)-2-({[trans-4-(Aminomethyl)cyclohexyl]carbonyl}amino)-3-oxo-3-{[4-(2H-tetrazol-5-yl)phenyl]amino}propyl]-2′-fluoro-2-methyl-N-(piperidin-4-yl)biphenyl-4-carboxamide hydrochloride] | 0.07 | 3.2 |
| Cc1cc(C(N)=O)ccc1-c1ccc(C[C@H](NC(=O)[C@H]2CC[C@H](CN)CC2)C(=O)Nc2ccc(-c3nn[nH]n3)cc2)cc1 [Example 14, 4′-[(2S)-2-({[trans-4-(Aminomethyl)cyclohexyl]carbonyl}amino)-3-oxo-3-{[4-(2H-tetrazol-5-yl)phenyl]amino}propyl]-2-methylbiphenyl-4-carboxamide hydrochloride] | 0.49 | 1.4 |
